Entries after “also recorded” stand apart in the source; their conditions may differ.
Legend:
[1] = system: anti-VP4 antibodies in plasmas or serums; assay: ELISA of plasmas/serums on wells coated with VP4 protein or VP4 peptides; type: binding, human; conditions: for OD in ELISA assay compared with the VP4 protein: 40 serums from patients and 40 controls; for Mean value of OD ratio (OD / OD of negative control), ELISA: diluted 1/50, antigen coated at 5 μg/ml, 490 nm
Protocol: 40 plasmas from non diabetic patients and 40 plasmas or serums from diabetic patients were assayed.
The VP4 protein or the 5 VP4 peptides, diluted at 5 μg/ml in PBS buffer pH=7.4, are coated in the wells of a microplate of 96 wells (FluoroMunc, MaxiSorp surface, NUNC, Danemark) at the rate of 100 μl/well. The plates are incubated for 1 hour at 37° C. under humid atmosphere, then left for 24 h at room temperature. After 3 washings with PBS buffer, the wells are saturated with 300 μl of saturation buffer for 1 hour at 37° C. under humid atmosphere, before washing 3 times with the washing buffer. Then 250 μl of post-coating buffer are added to each well and the plates are incubated for 24 h at room temperature, then stored at 4° C. until use.
The wells coated with the VP4 protein or the different peptides VP4 are washed 3 times with washing buffer in order to remove the post-coating solution. Then 100 μl of the plasmas or serums diluted to 1/50th in dilution buffer are added to different wells and the plates are incubated for 1 hour at 37° C. under humid atmosphere. Simultaneously, a negative control well containing 100 μl of dilution buffer is carried out. Then the wells are washed 3 times with the washing solution and 100 μl of secondary antibody solution are added to each well. After incubation for 1 h at 37° C. under humid atmosphere, the wells are washed 5 times with the washing solution and 100 μl of substrate solution are added to each well. The plates are incubated for 30 minutes at room temperature and in the dark. The coloured reaction is stopped by addition of 25 μl of H2SO4 2M (1M) per well and the plates are read in a plate reader at a wavelength of 490 nm.
ODs obtained for each serum with the VP4 protein and the different peptides VP4 were divided by the OD obtained with the negative control. The following Tables show the mean +/− standard deviation of the rates of OD obtained with the two series of assayed serums (Patient=diabetic patients, Control=not diabetic). (see FIGS. 8 à 10)

[2] = system: CVB4E2/plasma induced IFNα production by PBMCs; assay: CVB4E2/plasma induced IFNα production by PBMCs (DELFIA); type: cell-based, human
Protocol: (§1) VP4, H antigen or mock proteins were preincubated for 1 h at 37° C. at different concentrations with plasma from 5 healthy subjects diluted at optimal dilution (1/10 or 1/100 ). CVB3 or CVB4 were then added for 1 hour before incubating with PBMCs. […] On the contrary, the mock proteins isolated from non-infected Hep-2 cells have non effect on the IFNα production.
PBMCs separated from whole heparinated blood are distributed into microwells (plate of 96 wells), at the rate of 5 to 8.10^5 cell in 100 μl of supplemented RPMI medium by well. The infection of PBMC is made with a final volume of 100 μl of preparation in each well. After incubation for 48 h at 37° C. under a 5% CO2 atmosphere and 90% humidity, the supernatant is harvested and used immediately for IFNα dosage, or clarified by centrifugation for 10 minutes at 180×g and stored at −80° C. until dosage of the produced IFNα.
(§2) The concentration of the produced IFNα is determined with a sensitive and specific technique, the DELFIA method (Dissociation Enhanced Lanthanide FluoroImmmoAssay) (Rönnblom and al 1997).
The dosage of IFNα is performed following the DELFIA principle (Dissociation Enhanced Lanthanide FluoroImmunoAssay), based on a immunofluorescence in retarded phase method using antibodies binding IFNα of which one is labelled with europium. The use of an activation solution will release the europium conjugated with antibodies and emit a fluorescence proportional to the amount of produced IFNα and measured with a fluorometer (fluorometer LKB Wallac 1230 ARCOSO®, Turku, Finlande).
Monoclonal anti-IFNα antibodies LT 273 (5.4 mg/ml) and LT 293 (4.8 mg/ml) supplied by Dr Gunar Alm (Uppsala, Sweden) are coated to the bottom of the wells after an incubation for 12 hours at room temperature. These plates can be stored in a buffer at 4° C. or are used immediately. Standard samples of human IFNα are prepared with an “irrelevant” monoclonal mouse antibody IgG1 in order to establish the reference curve (10 measurements). The other samples to be analysed are added to each well (100 μl) with the dilution buffer and the “irrelevant” antibodies and incubated for 2 hours with gentle stirring at room temperature. The wells are washed 3 times with the washing solution. The antibody conjugated to europium (200 μl) is added to each well, left to incubate for 1 hour at room temperature with gentle stirring. The plate is washed 6 times with a washing solution. The activation solution (200 μl), added immediately after washing and left for 20 to 30 minutes for incubation in the well, causes a cleavage of the europium bound to the antibody fixed to IFNα, emitting a fluorescence measured with the fluorescence reader (LKB Wallac 1230 ARCUS®). The IFNα concentration will be calculated from the values of the measured fluorescence by means of the Graphpad program (San Diego, USA). The detection threshold of IFNα is of 0.5 IU/ml.
The plasma from a healthy donor (optimal dilution 1/10th or 1/100th) is pre-incubated for 1 hour at 37° C. with the recombinant VP4 protein of CVB4E2 (optimal concentration at 1 μg/ml). The whole is incubated again for one hour at 37° C. in the presence of the CVB4E2 virus (dilutions at 1/10th or 1/100th; viral titer at 10^13 TCID50/ml) then applied to the PBMCs, (5.10^5/well) to incubate for 48 hours.
In the same way, the plasma preparation preincubated for 1 hour and VP4 of CVB3 are incubated for 1 hour with CVB4E2 before infecting the PBMCs for 48 hours and determinating the amount of the produced IFNα.
The virus (CVB4E2 or CVB3) infected PBMCs in the presence of plasma are deemed to be positive controls of this experimentation. The negative controls are obtained with one well of PBMC alone, one well of virus CVB4B2 alone and one well of CVB3 alone.
The CVB4E2 induced IFNα production in cultures of PBMCs previously incubated in the presence of plasma from healthy subjects was measured. […]

[3] = system: CVB3/plasma induced IFNα production by PBMCs; assay: CVB3/plasma induced IFNα production by PBMCs (DELFIA); type: cell-based, human; conditions: protein preincubated 1 h at 37°C at different concentrations with plasma from healthy subjects, then CVB3, then PBMCs
Protocol: as §1
PBMCs separated from whole heparinated blood are distributed into microwells (plate of 96 wells), at the rate of 5 to 8.10^5 cell in 100 μl of supplemented RPMI medium by well. The infection of PBMC is made with a final volume of 100 μl of preparation in each well. […]
as §2
The dosage of IFNα is performed following the DELFIA principle (Dissociation Enhanced Lanthanide FluoroImmunoAssay), based on a immunofluorescence in retarded phase method using antibodies binding IFNα of which one is labelled with europium. The use of an activation solution will release the europium conjugated with antibodies and emit a fluorescence proportional to the amount of produced IFNα and measured with a fluorometer (fluorometer LKB Wallac 1230 ARCOSO®, Turku, Finlande). […]

[4] = Patient = 40 serums of diabetic patients
[5] = Control = 40 serums of non diabetic patients

Compound | OD in ELISA assay compared with the VP4 protein [1] | Mean value of OD ratio (OD / OD of negative control), ELISA [1, 4] | Mean value of OD ratio (OD / OD of negative control), ELISA [1, 5] | further results
CSCC[C@H](N)C(=O)NCC(=O)N[C@@H](C)C(=O)N[C@@H](CCC(N)=O)C(=O)N[C@H](C(=O)N[C@@H](CO)C(=O)N[C@H](C(=O)N[C@@H](CCC(N)=O)C(=O)N[C@@H](CCCCN)C(=O)N[C@H](C(=O)NCC(=O)N[C@@H](C)C(=O)N[C@@H](Cc1c[nH]cn1)C(=O)N[C@@H](CCC(=O)O)C(=O)N[C@H](C(=O)N[C@@H](CO)C(=O)N[C@@H](CC(C)C)C(=O)N[C@@H](CO)C(=O)N[C@@H](C)C(=O)N[C@@H](CO)C(N)=O)[C@@H](C)O)[C@@H](C)O)[C@@H](C)O)C(C)C [VP4-P1] | comparable to the VP4 protein | 1.450 | – | –
CC(C)[C@H](NC(=O)[C@H](CC(=O)O)NC(=O)[C@H](CCCCN)NC(=O)[C@@H](NC(=O)[C@@H]1CCCN1C(=O)[C@H](CCC(=O)O)NC(=O)[C@@H](NC(=O)[C@H](Cc1ccccc1)NC(=O)[C@H](CCCCN)NC(=O)[C@H](CO)NC(=O)[C@@H]1CCCN1C(=O)[C@H](CC(=O)O)NC(=O)[C@H](CCC(N)=O)NC(=O)[C@@H](NC(=O)[C@H](Cc1ccccc1)NC(=O)[C@H](CC(=O)O)NC(=O)[C@H](CCC(N)=O)NC(=O)[C@H](CCCNC(=N)N)NC(=O)[C@H](CC(N)=O)NC(=O)[C@H](C)NC(=O)[C@H](CO)NC(=O)[C@H](CC(N)=O)NC(=O)[C@H](CO)NC(=O)[C@H](C)NC(=O)[C@H](C)NC(=O)[C@H](CC(=O)O)NC(=O)[C@H](CCCCN)NC(=O)[C@H](Cc1ccc(O)cc1)NC(=O)[C@H](Cc1ccc(O)cc1)NC(=O)[C@@H](N)CC(N)=O)[C@@H](C)O)[C@@H](C)O)C(C)C)C(N)=O [VP4-P5] | – | 0.968 | – | –
H-SKFTEPVKDVMIKSLPALN-NH2 [VP4-P6, NH2-SKFTEPVKDVMIKSLPALN-CONH2] | – | 0.600 | – | –
CC[C@H](C)[C@H](NC(=O)[C@H](CC(N)=O)NC(=O)[C@@H](NC(=O)[C@H](Cc1ccc(O)cc1)NC(=O)[C@H](Cc1c[nH]cn1)NC(=O)[C@@H](NC(=O)[C@@H](NC(=O)[C@H](CO)NC(=O)[C@H](CC(N)=O)NC(=O)CNC(=O)[C@H](CO)NC(=O)[C@H](C)NC(=O)[C@H](CO)NC(=O)[C@H](CC(C)C)NC(=O)[C@H](CO)NC(=O)[C@@H](NC(=O)[C@H](CCC(=O)O)NC(=O)[C@H](Cc1c[nH]cn1)NC(=O)[C@H](C)NC(=O)CN)[C@@H](C)O)[C@@H](C)CC)[C@@H](C)CC)[C@@H](C)O)C(N)=O [VP4-P2] | comparable to the VP4 protein; also recorded: same behaviour as VP4; also recorded: recognizes a higher level of antibodies with diabetics as with non-diabetics | 2.373 | 0.691 | effect on IFNα production during infection of PBMCs with CVB4E2 in the presence of plasma ([2]; plasma 1/100th, peptide at three concentrations (FIG. 11, tracks 7 to 9)): diminution of the dose-dependent IFNα production; Mean value of OD ratio (OD / OD of negative control), ELISA ([1]; Patient = 40 serums of diabetic patients, listed as Peptide P2): 2.376
VP4CVB4: natural structural internal protein VP4 dissociated and purified from coxsackievirus CVB4 E2 | – | 1.964 | 0.711 | effect on CVB4/plasma induced IFNα production ([2]; protein preincubated 1 h at 37°C at different concentrations with plasma from healthy subjects, then CVB4, then PBMCs): Decrease; effect on CVB3/plasma induced IFNα production [3]: no change
CC[C@H](C)[C@H](NC(=O)[C@H](CC(N)=O)NC(=O)[C@@H](NC(=O)[C@H](Cc1ccc(O)cc1)NC(=O)[C@H](Cc1c[nH]cn1)NC(=O)[C@@H](NC(=O)[C@@H](NC(=O)[C@H](CO)NC(=O)[C@H](CC(N)=O)NC(=O)CN)[C@@H](C)CC)[C@@H](C)CC)[C@@H](C)O)C(=O)N[C@@H](CC(N)=O)C(=O)N[C@@H](Cc1ccc(O)cc1)C(=O)N[C@@H](Cc1ccc(O)cc1)C(=O)N[C@@H](CCCCN)C(=O)N[C@@H](CC(=O)O)C(=O)N[C@@H](C)C(=O)N[C@@H](C)C(=O)N[C@@H](CO)C(=O)N[C@@H](CC(N)=O)C(=O)N[C@@H](CO)C(N)=O [VP4-P3] | – | 0.712 | – | –

Source: US7534558B2, “In vitro diagnostic test for enterovirus infections” (Universite de Lille 2 Droit Et Sante, priority 2003, dated 2009)
